Laboratory results from patent US7700577B2, “Carbohydrate based anti-bacterials” (Alchemia Limited, priority 2002, dated 2010).

Key:
[1] = test system: S. aureus; assay: MIC testing, broth microdilution (NCCLS), S. aureus; format: cell-based, Staphylococcus aureus; details: for SA24 (MIC): S. aureus after 24 hours exposure; for SA48 (MIC): S. aureus after 48 hours exposure
Source text: (§1) The broth microdilution format of the National Committee for Clinical Laboratory Standards (NCCLS) approved standard for susceptibility tests as outlined in M7-A4 “methods for dillution Antimicrobial susceptibility tests for bacteria that grow aerobically; approved standard—fifth edition”, January 2000 was utilized for minimum inhibitory concentration testing in Mueller-Hinton broth. The broth for Streptococcus pyogenes testing was supplemented with 2% laked horse blood. A positive result in initial testing was determined by complete inhibition of macroscopic bacterial growth at a concentration of 128 micrograms per mL after incubation for 16 to 24 hours at 37 degrees C. In the case of Micrococcus luteus, incubation was at 30 degrees C. […] Bacterial Types Are: • SA24 S. aureus after 24 hours exposure • SA48 S. aureus after 48 hours exposure • EC24 E. coli after 24 hours exposure

[2] = test system: E. coli; assay: MIC testing, broth microdilution (NCCLS), E. coli; format: cell-based; details: E. coli after 24 hours exposure
Source text: as §1

Compound	SA24 (MIC) [1]	SA48 (MIC) [1]	EC24 (MIC) [2]
N=C(Nc1cccc(C(F)(F)F)c1)NC1[C@H](O[C@@H]2C(NC(=N)Nc3cccc(C(F)(F)F)c3)COC(CO)[C@@H]2NC(=O)C(N)Cc2ccc(-c3ccccc3)cc2)OC(CO)[C@@H](O)[C@@H]1O (stereo partly shown) [compound 26]	+ (+ indicates an MIC value of less than 128 micrograms per mL)	+ (+ indicates an MIC value of less than 128 micrograms per mL)	+ (+ indicates an MIC value of less than 128 micrograms per mL)
O=C(Nc1cccc(C(F)(F)F)c1)NC1[C@H](O[C@@H]2C(NS(=O)(=O)c3cccc(C(F)(F)F)c3)COC(CO)[C@@H]2NC(=O)c2ccc(-c3ccccc3)cc2)OC(CO)[C@@H](O)[C@@H]1O (stereo partly shown) [compound 37]	+ (+ indicates an MIC value of less than 128 micrograms per mL)	+ (+ indicates an MIC value of less than 128 micrograms per mL)	− (− indicates an MIC of greater then 128 micrograms per mL)
Cc1ccc(S(=O)(=O)NC2COC(CO)[C@H](NC(=O)c3ccc(-c4ccccc4)cc3)[C@@H]2O[C@@H]2OC(CO)[C@@H](O)[C@H](O)C2NC(=O)Nc2cccc(C(F)(F)F)c2)cc1 (stereo partly shown) [compound 39]	+ (+ indicates an MIC value of less than 128 micrograms per mL)	+ (+ indicates an MIC value of less than 128 micrograms per mL)	− (− indicates an MIC of greater then 128 micrograms per mL)
Cc1ccc(NC(=N)NC2[C@H](O[C@@H]3C(NC(=O)Nc4cccc(C(F)(F)F)c4)COC(CO)[C@@H]3NC(=O)c3ccc(-c4ccccc4)cc3)OC(CO)[C@@H](O)[C@@H]2O)cc1 (stereo partly shown) [compound 46]		+ (+ indicates an MIC value of less than 128 micrograms per mL)	− (− indicates an MIC of greater then 128 micrograms per mL)
O=C(Nc1cccc(C(F)(F)F)c1)NC1COC(CO)[C@H](NC(=O)c2ccc(-c3ccccc3)cc2)[C@@H]1O[C@@H]1OC(CO)[C@@H](O)[C@H](O)C1NS(=O)(=O)c1cccc(C(F)(F)F)c1 (stereo partly shown) [compound 48]	+ (+ indicates an MIC value of less than 128 micrograms per mL)	+ (+ indicates an MIC value of less than 128 micrograms per mL)	− (− indicates an MIC of greater then 128 micrograms per mL)
Cc1ccc(S(=O)(=O)NC2[C@H](O[C@@H]3C(NC(=O)Nc4cccc(C(F)(F)F)c4)COC(CO)[C@@H]3NC(=O)c3ccc(-c4ccccc4)cc3)OC(CO)[C@@H](O)[C@@H]2O)cc1 (stereo partly shown) [compound 49]		+ (+ indicates an MIC value of less than 128 micrograms per mL)	− (− indicates an MIC of greater then 128 micrograms per mL)
